According to US6346535B1, “Fungicidal mixtures” (American Cyanamid Company, priority 1999, dated 2002):
Like-named read-outs stand apart in the source and are kept apart here.

Columns and labels:
Format in all cases: in vivo
[1] = system: Pyrenophora teres on barley; experiment: Greenhouse trial, 4 day residual, Pyrenophora teres on barley; details: Pyrenophora teres, 96 h, 4 day residual, read-out: Observed Efficacy; for pest or weed control at 0.4 ppm: dose rate 0.4 ppm; for pest or weed control at 2 ppm: dose rate 2 ppm; for pest or weed control at 10 ppm: dose rate 10 ppm; for pest or weed control at 50 ppm: dose rate 50 ppm
[2] = system: Puccinia recondita on wheat; experiment: Greenhouse trial, 4 day residual, Puccinia recondita on wheat; details: Puccinia recondita, 96 h, read-out: Observed Efficacy; for pest or weed control at 4 ppm: dose rate 4 ppm; for pest or weed control at 16 ppm: dose rate 16 ppm; for pest or weed control at 64 ppm: dose rate 64 ppm; for pest or weed control at 256 ppm: dose rate 256 ppm; for pest or weed control at 0.4 ppm: dose rate 0.4 ppm; for pest or weed control at 2 ppm: dose rate 2 ppm; for pest or weed control at 10 ppm: dose rate 10 ppm; for pest or weed control at 50 ppm: dose rate 50 ppm
Method in brief: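 Wheat plants sprayed at primary-leaf stage with compounds, alone or in mixtures, in 5% acetone/0.05% Tween 20 water, then inoculated 4 days later with Puccinia recondita spore suspension and held 1-2 days in a moist chamber. Percent diseased leaf area scored about 7 days post-inoculation, excluding leaf tips and bases; efficacy calculated, synergy by Colby.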

[3] = system: Erysiphe cichoracearum on cucumbers; experiment: Greenhouse trial, 4 day residual, Erysiphe cichoracearum on cucumbers; details: Golovinomyces cichoracearum, 96 h, read-out: Observed Efficacy; for pest or weed control at 0.4 ppm: dose rate 0.4 ppm; for pest or weed control at 2 ppm: dose rate 2 ppm; for pest or weed control at 10 ppm: dose rate 10 ppm; for pest or weed control at 50 ppm: dose rate 50 ppm
Method in brief: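 Cucumber plants were sprayed to near run-off with compounds or mixtures (5% acetone/0.05% Tween 20 aqueous). Four days later they were inoculated by dusting with Erysiphe cichoracearum conidia. Percent diseased leaf area was assessed about 7 days after inoculation, and efficacy and Colby synergy were calculated from it.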

[4] = system: Leptosphaeria nodorum on wheat; experiment: Greenhouse trial, 4 day residual, Leptosphaeria nodorum on wheat; details: Parastagonospora nodorum, 96 h, compound alone, read-out: Observed Efficacy; for pest or weed control at 4 ppm: dose rate 4 ppm; for pest or weed control at 16 ppm: dose rate 16 ppm; for pest or weed control at 64 ppm: dose rate 64 ppm; for pest or weed control at 256 ppm: dose rate 256 ppm
Method in brief: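 Wheat at full primary-leaf expansion sprayed with aqueous formulated compounds or mixtures (technical material in 5% acetone/0.05% Tween 20) to near run-off or at 200 l/ha, inoculated 4 days later with spore suspension and held 1-2 days in a moist chamber. Percent diseased leaf area scored about 7 days post-inoculation, excluding leaf tips and bases; synergy judged by Colby formula.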

[5] = system: Blumeria graminis f. sp. tritici on wheat; experiment: Greenhouse trial, 2 day curative, Blumeria graminis f. sp. tritici on wheat; details: Table XVII, compound alone
Method: (§1) The trials are carried out under greenhouse (Examples 1 to 18) or field conditions (Example 19) in residual or curative applications. The fungicides are applied in single treatments, or in a combination comprising a benzophenone of formula I and a compound selected from (A) through (E) as defined above. The compounds are applied in form of an aqueous spray mix obtained from a concentrated formulation or the technical material.
(§2) 1. Seed is planted in 6 cm diameter plastic pots and maintained in the greenhouse.
(§3) 2. When the primary leaf is fully expanded (in the case of cereals) or several leaves are present (in the case of dicots), formulated test compounds are sprayed with a three nozzle overhead fungicide sprayer to near run-off. Alternatively, a single nozzle overhead track sprayer is used for application of the compounds to cereals at a rate of 200 liters/ha (l/ha). Plants are then allowed to air-dry.
(§4) 3. Inoculation precedes treatment in the case of curative evaluations and follows treatment in case of residual evaluations. For inoculation of powdery mildew disease, plants are set up on greenhouse benches with bottom watering mats and inoculated by dusting them with conidia from infected plants. Between inoculation and treatment for curative evaluations and between treatment and inoculation for residual evaluations, plants are maintained in the greenhouse with bottom watering. For inoculation of non-powdery mildew diseases, an aqueous spore suspension of the pathogen is applied to the plant and the plants are kept 1-2 days in a moist infection chamber before being returned to the greenhouse where they are maintained by bottom watering.
(§5) 4. Disease on the foliage as percent leaf area with disease symptoms/signs is evaluated about 7 days after inoculation. In the case of wheat, the tips and bases of the leaves are excluded from the evaluation. [formula]
(§6) 1. Technical compounds are formulated in a solvent/surfactant system consisting of 5% acetone and 0.05% Tween 20 in deionized water. Compounds are dissolved in acetone prior to addition of the water; the Tween 20 can be added through either the acetone or the water. Dilutions are made using the solvent/surfactant system. Formulated compounds are prepared using deionized water.
(§7) Assessments of the diseases took place at the indicated day after the application of the compounds. Per cent infected leaf area infected was evaluated. The efficacy of the compounds/compounds mixtures to control the diseases was calculated by using the formula given above under item 4: […]
(§8) Synergy of a fungicide mixture was determined by comparing the actual (observed) fungicidal activity of the mixture to the expected fungicidal activity of the mixture as calculated using the COLBY formula given hereinabove.
Fungicidal Efficacy of the Mixture of Different Benzophenones+Metconazole (2 Day Curative) Against Blumeria graminis f. sp. tritici on Wheat
The tank mixes were obtained from technical material of the benzophenones BP-2 and BP-4 and metconazole.

[6] = system: Uncinula necator on vines; experiment: Greenhouse trial, 1 day residual, Uncinula necator on vines; details: Table XVIII, compound alone
Method: as §1, §2, §3, §4, §5, §6, §7, §8
Fungicidal Efficacy of the Mixture of BP-4+AP-4 (1 Day Residual) Against Uncinula necator on Vines
The tank mixes were obtained from technical material of BP-4 and AP-4. The active ingredients, the type of formulations, the observed and expected efficacies with different rates are given in Table XVIII: […]

[7] = Table XV (Example 15), 4 day residual
[8] = Table XIV (Example 14), 4 day residual

## COc1cc(C)c(C(=O)c2c(OC)ccc(Br)c2C)c(OC)c1OC [BP-4, 5-bromo-2′,6-dimethyl-2,4′,5′,6′-tetramethoxybenzophenone]
[1]; Table XIII (Example 13)
  pest or weed control at 0.4 ppm: 0%
  pest or weed control at 2 ppm: 0%
  pest or weed control at 10 ppm: 34%
  pest or weed control at 50 ppm: 58%
[1]; Table XVI (Example 16)
  pest or weed control at 0.4 ppm: 0%
  pest or weed control at 2 ppm: 0%
  pest or weed control at 10 ppm: 0%
  pest or weed control at 50 ppm: 11%
[2]; Table IX, compound alone
  pest or weed control at 4 ppm: 6%
  pest or weed control at 16 ppm: 4%
  pest or weed control at 64 ppm: 16%
  pest or weed control at 256 ppm: 38%
[2]; Table VII, compound alone
  pest or weed control at 4 ppm: 0%
  pest or weed control at 16 ppm: 0%
  pest or weed control at 64 ppm: 0%
  pest or weed control at 256 ppm: 13%
[2]; Table XII, compound alone
  pest or weed control at 0.4 ppm: 2%
  pest or weed control at 2 ppm: 7%
  pest or weed control at 10 ppm: 10%
  pest or weed control at 50 ppm: 31%
[2]; [7]
  pest or weed control at 0.4 ppm: 0%
  pest or weed control at 2 ppm: 0%
  pest or weed control at 10 ppm: 6%
  pest or weed control at 50 ppm: 12%
[3]; Table VI, compound alone, dose rate 1 ppm
  pest or weed control at 1 ppm: 1%
[3]; Table VI, compound alone, dose rate 4 ppm
  pest or weed control at 4 ppm: 6%
[3]; Table VI, compound alone, dose rate 16 ppm
  pest or weed control at 16 ppm: 51%
[3]; Table VI, compound alone, dose rate 64 ppm
  pest or weed control at 64 ppm: 100%
[3]; Table XI, compound alone
  pest or weed control at 0.4 ppm: 0%
  pest or weed control at 2 ppm: 2%
  pest or weed control at 10 ppm: 55%
  pest or weed control at 50 ppm: 96%
[3]; [8]
  pest or weed control at 0.4 ppm: 0%
  pest or weed control at 2 ppm: 0%
  pest or weed control at 10 ppm: 13%
  pest or weed control at 50 ppm: 97%
[4]; Table VIII
  pest or weed control at 4 ppm: 0%
  pest or weed control at 16 ppm: 0%
  pest or weed control at 64 ppm: 14%
  pest or weed control at 256 ppm: 34%
[4]; Table X
  pest or weed control at 4 ppm: 0%
  pest or weed control at 16 ppm: 10%
  pest or weed control at 64 ppm: 18%
  pest or weed control at 256 ppm: 44%
[5]; dose rate 0.67 ppm
  Observed Efficacy: 9%
[5]; dose rate 2 ppm
  Observed Efficacy: 27%
[5]; dose rate 6 ppm
  Observed Efficacy: 42%
[5]; dose rate 18 ppm
  Observed Efficacy: 78%
[5]; dose rate 54 ppm
  Observed Efficacy: 92%
[6]; dose rate 0.25 ppm
  Observed Efficacy: 0%
[6]; dose rate 0.5 ppm
  Observed Efficacy: 21%
[6]; dose rate 1 ppm
  Observed Efficacy: 28%
[6]; dose rate 2 ppm
  Observed Efficacy: 9%
[6]; dose rate 4 ppm
  Observed Efficacy: 43%
[6]; dose rate 8 ppm
  Observed Efficacy: 42%
